Assay results from ChEMBL document CHEMBL1201862, “PubChem BioAssay data set” (2004).
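Values below derive from 48-hour exposures of cells grown in 96-well plates, with endpoints linearly interpolated between the two concentrations bracketing the appropriate inhibition level. GI50: concentration for 50% inhibition of growth.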 Activity calls are given as the source filed them. No stated cut-off is given here; in the data, active = GI50 up to about 1.1 µM and inactive = higher.

Key:
Test in all cases: NCI-60 cell line screen, 48 h
XF498 = system: XF498
SK-MEL-5 = system: SK-MEL-5
MOLT-4 = system: MOLT-4
UO-31 = system: UO-31
KM-20L2 = system: KM-20L2
RXF 631 = system: RXF 631
RXF 393 = system: RXF 393
OVCAR-4 = system: OVCAR-4
CAKI-1 = system: CAKI-1
HL-60 = system: HL-60
HOP-18 = system: HOP-18
HOP-92 = system: HOP-92
TK-10 = system: TK-10
SK-MEL-2 = system: SK-MEL-2
DMS-273 = system: DMS-273
A549 = system: A549
HCT-15 = system: HCT-15
EKVX = system: EKVX
LXFL 529 = system: LXFL 529
M14 = system: M14
SNB-78 = system: SNB-78
U-251 = system: U-251
SK-OV-3 = system: SK-OV-3
HCC 2998 = system: HCC 2998
KM12 = system: KM12
SF-295 = system: SF-295
K562 = system: K562
SN12C = system: SN12C
SNB-19 = system: SNB-19
HT-29 = system: HT-29
SF-268 = system: SF-268
UACC-62 = system: UACC-62
OVCAR-5 = system: OVCAR-5
UACC-257 = system: UACC-257
OVCAR-8 = system: OVCAR-8
COLO 205 = system: COLO 205
A498 = system: A498
RPMI-8226 = system: RPMI-8226
LOX IMVI = system: LOX IMVI
NCI-H23 = system: NCI-H23
SF-539 = system: SF-539
SK-MEL-28 = system: SK-MEL-28
NCI-H460 = system: NCI-H460
OVCAR-3 = system: OVCAR-3
M19-MEL = system: M19-MEL
NCI-H226 = system: NCI-H226
NCI-H522 = system: NCI-H522
Malme-3M = system: Malme-3M
ACHN = system: ACHN
DMS-114 = system: DMS-114
DLD-1 = system: DLD-1
786-0 = system: 786-0
IGROV-1 = system: IGROV-1
HOP-62 = system: HOP-62
CCRF-CEM = system: CCRF-CEM
SW-620 = system: SW-620
SNB-75 = system: SNB-75
DU-145 = system: DU-145
SR = system: SR
HCT-116 = system: HCT-116

`NCCCNCCS` [WR-1065] was tested, and the GI50 (XF498) was > 100 µM (inactive), the GI50 (SK-MEL-5) was > 100 µM (inactive) and the GI50 (MOLT-4) was > 100 µM (inactive). The GI50 (UO-31) was > 100 µM (inactive), the GI50 (KM-20L2) was > 100 µM (inactive) and the GI50 (RXF 631) was > 100 µM (inactive). For the same compound, the GI50 (RXF 393) was > 100 µM (inactive), the GI50 (OVCAR-4) was > 100 µM (inactive) and the GI50 (CAKI-1) was > 100 µM (inactive). For the same compound, the GI50 (HL-60) was > 100 µM (inactive), the GI50 (HOP-18) was > 100 µM (inactive) and the GI50 (HOP-92) was > 100 µM (inactive). The GI50 (TK-10) was > 100 µM (inactive), the GI50 (SK-MEL-2) was > 100 µM (inactive) and the GI50 (DMS-273) was > 100 µM (inactive). The GI50 (A549) was > 100 µM (inactive), the GI50 (HCT-15) was greater than 100 µM and the GI50 (EKVX) was > 100 µM (inactive). The GI50 (LXFL 529) was > 100 µM (inactive), the GI50 (M14) was > 100 µM (inactive) and the GI50 (SNB-78) was > 100 µM (inactive). The GI50 (U-251) was > 100 µM (inactive), the GI50 (SK-OV-3) was > 100 µM (inactive) and the GI50 (HCC 2998) was > 100 µM (inactive). For the same compound, the GI50 (KM12) was > 100 µM (inactive), the GI50 (SF-295) was > 100 µM (inactive) and the GI50 (K562) was > 100 µM (inactive). The GI50 (SN12C) was > 100 µM (inactive), the GI50 (SNB-19) was > 100 µM (inactive) and the GI50 (HT-29) was > 100 µM (inactive). The GI50 (SF-268) was > 100 µM (inactive), the GI50 (UACC-62) was > 100 µM (inactive) and the GI50 (OVCAR-5) was > 100 µM (inactive). For the same compound, the GI50 (UACC-257) was > 100 µM (inactive) and the GI50 (OVCAR-8) was > 100 µM (inactive).
`COc1cc2nncc(Sc3cnnc4ccccc34)c2cc1OC` was tested, and the GI50 (SK-MEL-5) was 14.2 µM (inactive), the GI50 (COLO 205) was 22.6 µM (inactive) and the GI50 (A498) was 26.7 µM (inactive). For the same compound, the GI50 (MOLT-4) was 22.2 µM (inactive), the GI50 (RPMI-8226) was 16.9 µM (inactive) and the GI50 (LOX IMVI) was 23.3 µM (inactive). For the same compound, the GI50 (UO-31) was 19.1 µM (inactive), the GI50 (NCI-H23) was > 10 µM (inactive) and the GI50 (SF-539) was 21 µM (inactive). The GI50 (KM-20L2) was 25.6 µM (inactive), the GI50 (RXF 631) was 23 µM (inactive) and the GI50 (SK-MEL-28) was 23 µM (inactive). For the same compound, the GI50 (NCI-H460) was 22.8 µM (inactive), the GI50 (OVCAR-4) was 10.1 µM (inactive) and the GI50 (OVCAR-3) was 17.4 µM (inactive). For the same compound, the GI50 (CAKI-1) was 11.8 µM (inactive), the GI50 (HL-60) was 22.1 µM (inactive) and the GI50 (HOP-18) was 16.5 µM (inactive). For the same compound, the GI50 (M19-MEL) was 30.7 µM (inactive), the GI50 (NCI-H226) was 23.7 µM (inactive) and the GI50 (NCI-H522) was 12.9 µM (inactive). For the same compound, the GI50 (HOP-92) was 6.14 µM (inactive), the GI50 (TK-10) was 29 µM (inactive) and the GI50 (SK-MEL-2) was 16.7 µM (inactive). For the same compound, the GI50 (DMS-273) was 29.7 µM (inactive), the GI50 (A549) was 25.5 µM (inactive) and the GI50 (HCT-15) was 24.7 µM. The GI50 (EKVX) was 37.1 µM (inactive), the GI50 (LXFL 529) was 9.79 µM (inactive) and the GI50 (Malme-3M) was 17.2 µM (inactive). For the same compound, the GI50 (M14) was 18 µM (inactive), the GI50 (ACHN) was 20.1 µM (inactive) and the GI50 (DMS-114) was 9.95 µM (inactive). For the same compound, the GI50 (SNB-78) was 6 µM (inactive), the GI50 (U-251) was 25.5 µM (inactive) and the GI50 (SK-OV-3) was 14.7 µM (inactive). The GI50 (HCC 2998) was 17.6 µM (inactive), the GI50 (KM12) was 18.9 µM (inactive) and the GI50 (SF-295) was 26.9 µM (inactive). For the same compound, the GI50 (K562) was 26 µM (inactive), the GI50 (SNB-19) was 19.8 µM (inactive) and the GI50 (HT-29) was 21.6 µM (inactive). The GI50 (DLD-1) was 19.6 µM (inactive), the GI50 (SF-268) was 31.1 µM (inactive) and the GI50 (786-0) was 27.4 µM (inactive). The GI50 (IGROV-1) was 21.9 µM (inactive), the GI50 (UACC-62) was 7.52 µM (inactive) and the GI50 (OVCAR-5) was 27 µM (inactive). The GI50 (UACC-257) was 23.1 µM (inactive), the GI50 (HOP-62) was 34.3 µM (inactive) and the GI50 (CCRF-CEM) was 17.5 µM (inactive). For the same compound, the GI50 (SW-620) was 16.6 µM (inactive).
`CC(=O)OC[C@@H](COC(=O)/C=C/c1ccc(O)cc1)OC1OC(CO)C(O)C(O)C1O` (stereo not given in full) was tested, and the GI50 (XF498) was > 100 µM (inactive), the GI50 (SK-MEL-5) was > 100 µM (inactive) and the GI50 (COLO 205) was > 100 µM (inactive). For the same compound, the GI50 (SNB-75) was > 100 µM (inactive), the GI50 (A498) was > 100 µM (inactive) and the GI50 (MOLT-4) was > 100 µM (inactive). The GI50 (RPMI-8226) was > 100 µM (inactive), the GI50 (LOX IMVI) was > 100 µM (inactive) and the GI50 (UO-31) was > 100 µM (inactive). For the same compound, the GI50 (NCI-H23) was > 100 µM (inactive), the GI50 (SF-539) was > 100 µM (inactive) and the GI50 (KM-20L2) was > 100 µM (inactive). The GI50 (RXF 631) was > 100 µM (inactive), the GI50 (SK-MEL-28) was > 100 µM (inactive) and the GI50 (NCI-H460) was > 100 µM (inactive). For the same compound, the GI50 (RXF 393) was > 100 µM (inactive), the GI50 (OVCAR-4) was > 100 µM (inactive) and the GI50 (OVCAR-3) was > 100 µM (inactive). The GI50 (CAKI-1) was > 100 µM (inactive), the GI50 (HL-60) was > 100 µM (inactive) and the GI50 (HOP-18) was > 100 µM (inactive). For the same compound, the GI50 (M19-MEL) was > 100 µM (inactive), the GI50 (NCI-H226) was > 100 µM (inactive) and the GI50 (NCI-H522) was > 100 µM (inactive). For the same compound, the GI50 (HOP-92) was > 100 µM (inactive), the GI50 (TK-10) was > 100 µM (inactive) and the GI50 (SK-MEL-2) was > 100 µM (inactive). The GI50 (A549) was > 100 µM (inactive), the GI50 (HCT-15) was greater than 100 µM and the GI50 (EKVX) was > 100 µM (inactive). For the same compound, the GI50 (LXFL 529) was > 100 µM (inactive), the GI50 (Malme-3M) was > 100 µM (inactive) and the GI50 (M14) was > 100 µM (inactive). The GI50 (ACHN) was > 100 µM (inactive), the GI50 (DU-145) was > 100 µM (inactive) and the GI50 (SNB-78) was > 100 µM (inactive). For the same compound, the GI50 (U-251) was > 100 µM (inactive), the GI50 (SK-OV-3) was > 100 µM (inactive) and the GI50 (HCC 2998) was > 100 µM (inactive). The GI50 (KM12) was > 100 µM (inactive), the GI50 (SF-295) was > 100 µM (inactive) and the GI50 (K562) was > 100 µM (inactive). For the same compound, the GI50 (SN12C) was > 100 µM (inactive), the GI50 (SR) was > 100 µM (inactive) and the GI50 (SNB-19) was > 100 µM (inactive). The GI50 (HT-29) was > 100 µM (inactive), the GI50 (DLD-1) was > 100 µM (inactive) and the GI50 (SF-268) was > 75.5 µM (inactive). For the same compound, the GI50 (786-0) was > 100 µM (inactive), the GI50 (IGROV-1) was > 100 µM (inactive) and the GI50 (UACC-62) was > 100 µM (inactive). The GI50 (OVCAR-5) was > 100 µM (inactive), the GI50 (HCT-116) was > 100 µM (inactive) and the GI50 (UACC-257) was > 100 µM (inactive). The GI50 (HOP-62) was > 100 µM (inactive), the GI50 (CCRF-CEM) was > 100 µM (inactive) and the GI50 (SW-620) was > 100 µM (inactive). The GI50 (OVCAR-8) was > 100 µM (inactive).
